From patent publication US9029553B2, “2-anilino nicotinyl linked 2-amino benzothiazole conjugates and process for the preparation thereof” (Council of Scientific & Industrial Research, priority 2011, dated 2015)

What was measured:
502713 = assay: SRB percentage growth inhibition (NCI protocol); type: cell-based; conditions: Homo sapiens, 48 hrs exposure
Method: (§1) 2-Anilino nicotinyl linked 2-amino benzothiazoles conjugates of formula 4-8 have been tested against ten and eleven human cancer cell lines for 10 and 1 μM respectively derived from nine cancer types (leukemia, non-small cell lung cancer, colon cancer, CNS cancer, melanoma, ovarian cancer, renal cancer, prostate cancer and breast cancer) as per NCI protocol. For each compound, percentage of growth inhibition was calculated for individual cell lines at a minimum of two concentrations (1 and 10 μM). A protocol of 48 hrs continuous drug exposure was used, and a sulforhodamine B (SRB) protein assay was used to estimate cell viability or growth. The percentage of growth inhibition compared with the control was calculated in table 1 and table 2.

HCT-15 [1] = assay: SRB percentage growth inhibition (NCI protocol); type: cell-based; conditions: Homo sapiens, 48 hrs exposure
Method: as §1

IMR-32 = assay: SRB percentage growth inhibition (NCI protocol); type: cell-based; conditions: Homo sapiens, 48 hrs exposure
Method: as §1

OVCAR-5 = assay: SRB percentage growth inhibition (NCI protocol); type: cell-based; conditions: Homo sapiens, 48 hrs exposure
Method: as §1

SK-NS-H = assay: SRB percentage growth inhibition (NCI protocol); type: cell-based; conditions: Homo sapiens, SK-N-SH, 48 hrs exposure
Method: as §1

SiHa [2] = assay: SRB percentage growth inhibition (NCI protocol); type: cell-based; conditions: Homo sapiens, 48 hrs exposure
Method: as §1

Sw-620 = assay: SRB percentage growth inhibition (NCI protocol); type: cell-based; conditions: Homo sapiens, 48 hrs exposure
Method: as §1

A549 = assay: SRB percentage growth inhibition (NCI protocol); type: cell-based; conditions: Homo sapiens, 48 hrs exposure
Method: as §1

DU145 = assay: SRB percentage growth inhibition (NCI protocol); type: cell-based; conditions: Homo sapiens, DU-145, 48 hrs exposure
Method: as §1

HEP-2 = assay: SRB percentage growth inhibition (NCI protocol); type: cell-based; conditions: Homo sapiens, 48 hrs exposure
Method: as §1

Hela [3] = assay: SRB percentage growth inhibition (NCI protocol); type: cell-based; conditions: Homo sapiens, 48 hrs exposure
Method: as §1

IGR-OV-1 = assay: SRB percentage growth inhibition (NCI protocol); type: cell-based; conditions: Homo sapiens, IGROV-1, 48 hrs exposure
Method: as §1

MCF-7 [4] = assay: SRB percentage growth inhibition (NCI protocol); type: cell-based; conditions: Homo sapiens, MCF7, 48 hrs exposure
Method: as §1

PC-3 = assay: SRB percentage growth inhibition (NCI protocol); type: cell-based; conditions: Homo sapiens, 48 hrs exposure
Method: as §1

HCT-15 [5] = assay: MTT inhibition of cell proliferation; type: cell-based; conditions: Homo sapiens, 48 h
Text: (§2) In order to determine the mode of action of cell death in cancer cells, first we explored the cytotoxic potential of different structural analogs of benzothiazoles on different human cancer cell lines. […] These compounds have limited or no cytotoxicity to cervical cancer SiHa, HeLa cells, breast cancer MCF-7 cells and colon cancer HCT-15 cells.

HL-60 = assay: MTT inhibition of cell proliferation; type: cell-based; conditions: Homo sapiens, 48 h
Text: as §2

Hela [6] = assay: MTT inhibition of cell proliferation; type: cell-based; conditions: Homo sapiens, 48 h
Text: as §2

MCF-7 [7] = assay: MTT inhibition of cell proliferation; type: cell-based; conditions: Homo sapiens, MCF7, 48 h
Text: as §2

SiHa [8] = assay: MTT inhibition of cell proliferation; type: cell-based; conditions: Homo sapiens, 48 h
Text: as §2

[9] = system: normal monkey kidney CV-1 cells; assay: MTT cytotoxicity in normal cells; type: cell-based; conditions: Primates
Method: These compounds were also evaluated for their cytotoxic potential in normal cells and for these purpose their IC50 value were also determine in normal monkey kidney CV-1 cells by using MTT method. The ratios of normal to cancer cells IC50 value were ranges from 10-1000 times (Table 5).

HL-60 cells = assay: Flow cytometric analysis of reactive oxygen species (DCFH-DA); type: cell-based, human; conditions: 1 μM; for increase in DCF positive cell population (ROS): 24 h, HL-60, compared to control
Method: It was clear that these compounds were cytotoxic and induce apoptosis in HL-60 cells, now we have to found out the early events which were responsible for the induction of apoptosis like reactive oxygen species (ROS) or nitric oxide (NO) generation. Intracellular peroxide (ROS) in the cells was measured by DCFH-DA by using flow cytometry. Cells were incubated with tested compounds at 1 μM for 24 h in HL-60 cells and analyzed by flow cytometry after double staining with DCFH-DA (FIG. 7). Cells were analyzed for fluorescence intensity in FL1 vs. cell count. There was hardly any DCF fluorescence (ROS positive cells) in the untreated HL-60 cells, and this status remained unchanged when cells were incubated for 24 hr with compounds 7 and 8. […] Compounds 4 and 6 also induce the generation of peroxide in HL-60 cells (31 and 16% increase, respectively).

topoisomerase II = assay: DNA topoisomerase-II inhibition assay; type: biochemical; conditions: 1 μM; etoposide 100 μM
Text: DNA topoisomerases are nuclear enzymes capable of resolving the topology of DNA to allow its replication. So, proper relaxing is very important for successful replication cycle and thus for the cell survival. However, topoisomerases also serve as targets in the anticancer chemotherapy in which cell death serves an important purpose. Moreover, the topoisomerase targeting drugs can either be classified either topo posions, which act by stabilizing enzyme DNA cleavable complexes leading to DNA break or topo catalytic inhibitors, which act by stabilizing enzyme where both DNA strands remain intact and no DNA breaks occur. Importantly, all the topoisomerase inhibitors finally induce apoptosis. In the present study, all the five compounds 4-8 were first subjected to topoisomerase II inhibition assay.

[10] = system: Ehrlich Ascites Carcinoma (EAC); assay: In vivo anticancer activity, Ehrlich ascites carcinoma; set-up: species or system Swiss mice; conditions: for No. of deaths / toxicity to animals: EAC mice
Method: Model: Ehrlich Ascites Carcinoma (EAC)
Ehrlich ascites carcinoma (EAC) cells were collected from the peritoneal cavity of the swiss mice harbouring 8-10 days old ascitic tumor. 1×10^7 EAC cells were injected intraperitoneally in Swiss mice selected for the experiment on day 0. The next day, animals were randomized and divided into different groups. The treatment groups contained 7 animals each and control group contained 10 animals. Treatment groups were treated with different doses of test substances intraperitoneally from day 1-9. One of the treatment group received 5-fluorouracil (20 mg/kg, i.p) and it served as positive control. The tumor bearing control group was similarly administered normal saline (0.2 ml, i.p.). On day 12, animals were sacrificed and ascitic fluid was collected from peritoneal cavity of each mouse for the evaluation of tumor growth. Percent tumor growth inhibition was calculated based on the total number of tumor cells present in the peritoneal cavity as on day 12 of the experiment using the following formula.

Row | Structure (SMILES) | inhibition at 10 µM 502713 | inhibition at 1 µM (HCT-15 [1]) | inhibition at 10 µM (HCT-15 [1]) | inhibition at 10 µM (IMR-32) | inhibition at 10 µM (OVCAR-5) | inhibition at 10 µM (SK-NS-H) | inhibition at 10 µM (SiHa [2]) | inhibition at 1 µM (Sw-620) | inhibition at 10 µM (Sw-620) | inhibition at 1 µM (A549) | inhibition at 10 µM (A549) | inhibition at 1 µM (DU145) | inhibition at 10 µM (DU145) | inhibition at 1 µM (HEP-2) | inhibition at 10 µM (HEP-2) | inhibition at 1 µM (Hela [3]) | inhibition at 1 µM (IGR-OV-1) | inhibition at 1 µM (IMR-32) | inhibition at 1 µM (MCF-7 [4]) | inhibition at 1 µM (OVCAR-5) | also measured
1 | O=c1[nH]cc(F)c(=O)[nH]1 [Compound 5-FU, 5-fluorouracil, reference compound] | 21% | 46% | 44% | 71% | 22% | 7% | 44% | 44% | 76% | – | – | – | – | – | – | – | – | – | – | – | –
2 | O=C(Nc1nc2ccc([N+](=O)[O-])cc2s1)c1cccnc1Nc1ccc(Cl)cc1Cl [Compound 7] | 2% | 4% | 75% | 48% | 0% | 50% | 35% | 12% | 61% | 15% | 19% | 36% | 39% | 46% | 14% | 0% | 24% | 42% | 80% | 19% | inhibition at 1 µM (PC-3): 27%; IC50 (HCT-15 [5]): > 100 µM; IC50 (HL-60): 0.4 µM; IC50 (Hela [6]): > 100 µM; IC50 (MCF-7 [7]): > 100 µM; IC50 (SiHa [8]): > 50 µM; IC50 [9]: 0.8 µM; DCF fluorescence (ROS positive cells), in words (HL-60 cells; 24 hr, HL-60): unchanged; topoisomerase-II inhibition (DNA relaxation) (topoisomerase II): more potent effect relative to etoposide; Growth Inhibition (%) ([10]; 20 mg/Kg i.p. day 1-9, read day 12): 63.89%; No. of deaths / toxicity to animals ([10]; 20 mg/Kg i.p.): without any deaths; No. of deaths / toxicity to animals ([10]; 20 mg/Kg i.p., listed as Comp 7): 0/7; Growth Inhibition (%) ([10]; 40 mg/Kg i.p. day 1-9, read day 12): Intolerable; No. of deaths / toxicity to animals ([10]; 40 mg/Kg i.p.): 7/7
3 | CC(=O)O[C@H]1C(=O)[C@@]2(C)[C@H]([C@H](OC(=O)c3ccccc3)[C@]3(O)C[C@H](OC(=O)[C@H](O)[C@@H](NC(=O)c4ccccc4)c4ccccc4)C(C)=C1C3(C)C)[C@]1(OC(C)=O)CO[C@@H]1C[C@@H]2O [Pac, paclitaxel, reference compound] | 59% | – | 37% | 46% | 51% | 20% | 49% | – | 73% | 34% | 41% | 44% | 42% | – | – | – | – | – | – | – | –
4 | O=C(Nc1nc2ccc([N+](=O)[O-])cc2s1)c1cccnc1Nc1ccccc1 [Compound 4, N-3-(6-Nitro-1,3-benzothiazol-2-yl)-2-(phenylamino)-3-pyridinecarboxamide] | 63% | 6% | 66% | 45% | 50% | 48% | 53% | 9% | 65% | 23% | 31% | 35% | 52% | 50% | 26% | 9% | 29% | 35% | 44% | 29% | inhibition at 1 µM (PC-3): 22%; IC50 (HCT-15 [5]): > 100 µM; IC50 (HL-60): 0.58 µM; IC50 (Hela [6]): > 100 µM; IC50 (MCF-7 [7]): > 100 µM; IC50 (SiHa [8]): 28 µM; IC50 [9]: 70 µM; increase in DCF positive cell population (ROS) (HL-60 cells): 31%; topoisomerase-II inhibition (DNA relaxation) (topoisomerase II): more potent effect relative to etoposide; Growth Inhibition (%) ([10]; 10 mg/Kg i.p. day 1-9, read day 12): 42.21%; No. of deaths / toxicity to animals ([10]; 10 mg/Kg i.p.): 2; No. of deaths / toxicity to animals ([10]; 10 mg/Kg i.p., listed as Comp 4): 2/7; Growth Inhibition (%) ([10]; 50 mg/Kg i.p. day 1-9, read day 12): Intolerable; No. of deaths / toxicity to animals ([10]; 50 mg/Kg i.p.): toxic; No. of deaths / toxicity to animals ([10]; 50 mg/Kg i.p., listed as Comp 4): 7/7
5 | COc1ccc(Nc2ncccc2C(=O)Nc2nc3ccc([N+](=O)[O-])cc3s2)cc1 [Compound 5, N3-(6-nitro-1,3-benzothiazol-2-yl)-2-(4-methoxyanilino)nicotinamide] | 59% | 9% | 47% | 55% | 52% | 64% | 66% | 15% | 64% | 27% | 3% | 53% | 32% | 38% | 5% | 7% | 27% | 53% | 25% | 31% | inhibition at 1 µM (PC-3): 21%; IC50 (HCT-15 [5]): > 100 µM; IC50 (HL-60): 0.7 µM; IC50 (Hela [6]): > 100 µM; IC50 (MCF-7 [7]): > 100 µM; IC50 (SiHa [8]): 28 µM; IC50 [9]: 10 µM; increase in DCF positive cell population (ROS) (HL-60 cells): ~44%; topoisomerase-II inhibition (DNA relaxation) (topoisomerase II): more potent effect relative to etoposide; Growth Inhibition (%) ([10]; 5 mg/Kg i.p. day 1-9, read day 12): 20.90%; No. of deaths / toxicity to animals ([10]; 5 mg/Kg i.p.): 0/7; Growth Inhibition (%) ([10]; 30 mg/Kg i.p. day 1-9, read day 12): Intolerable; No. of deaths / toxicity to animals ([10]; 30 mg/Kg i.p.): toxic; No. of deaths / toxicity to animals ([10]; 30 mg/Kg i.p., listed as Comp 5): 7/7
